Results on 41 compounds are retold here after patent US11236084B2, “Substituted azaindoline derivatives as NIK inhibitors” (Janssen Pharmaceutica NV, priority 2017, dated 2022).

This assay deals with recombinant human NF-kappaB-inducing kinase (NIK/MAP3K14) (Homo sapiens, UniProt Q99558). The experiment in a line: Biological Assay B: inhibition of auto-phosphorylation of recombinant human NIK/MAP3K14 (AlphaScreen), performed at 2 locations. The assay is classed as biochemical. The settings on record: averaged values. The protocol:
Inhibition of Auto-Phosphorylation of Recombinant Human NF-kappaB-Inducing Kinase (NIK/MAP3K14) Activity (AlphaScreen®)
NIK/MAP3K14 auto-phosphorylation activity was measured using the AlphaScreen® (αscreen) format (Perkin Elmer). All compounds tested were dissolved in dimethyl sulfoxide (DMSO) and further dilutions were made in assay buffer. Final DMSO concentration was 1% (v/v) in assays. Assay buffer was 50 mM Tris pH 7.5 containing 1 mM EGTA (ethylene glycol tetraacetic acid), 1 mM DTT (dithiothreitol), 0.1 mM Na3VO4, 5 mM MgCl2, 0.01% Tween® 20. Assays were carried out in 384 well Alphaplates (Perkin Elmer). Incubations consisted of compound, 25 microM Adenosine-5′-triphosphate (ATP), and 0.2 nM NIK/MAP3K14. Incubations were initiated by addition of GST-tagged NIK/MAP3K14 enzyme, carried out for 1 h at 25° C. and terminated by addition of stop buffer containing anti-phospho-IKK Ser176/180 antibody. Protein A Acceptor and Glutathione-Donor beads were added before reading using an EnVision® Multilabel Plate Reader (Perkin Elmer). Signal obtained in the wells containing blank samples was subtracted from all other wells and IC50's were determined by fitting a sigmoidal curve to % inhibition of control versus Log10 compound concentration.
Assay B was performed at 2 different locations.
Data for the compounds of the invention in the above assays are provided in Table A (the values in Table are averaged values over all measurements on all batches of a compound; values as IC50 (nM)). (‘n.c.’ means not calculated: ‘Co.’ means compound)
(In general: In Alpha technology, singlet oxygen from a donor bead excites a nearby acceptor bead.)

The mark [1] stands for this setting: location 1, AlphaScreen auto-phosphorylation, read-out: Assay B location 1 IC50.
Where [2] appears, read: location 2, AlphaScreen auto-phosphorylation, read-out: Assay B location 2 IC50.
The mark [3] stands for this setting: location 1, NIK auto-phosphorylation, AlphaScreen, read-out: Assay B location 1 IC50.

Like-named read-outs stand apart in the source and are kept apart here.

Sequence of recombinant human NF-kappaB-inducing kinase (NIK/MAP3K14) (Q99558 whole entry): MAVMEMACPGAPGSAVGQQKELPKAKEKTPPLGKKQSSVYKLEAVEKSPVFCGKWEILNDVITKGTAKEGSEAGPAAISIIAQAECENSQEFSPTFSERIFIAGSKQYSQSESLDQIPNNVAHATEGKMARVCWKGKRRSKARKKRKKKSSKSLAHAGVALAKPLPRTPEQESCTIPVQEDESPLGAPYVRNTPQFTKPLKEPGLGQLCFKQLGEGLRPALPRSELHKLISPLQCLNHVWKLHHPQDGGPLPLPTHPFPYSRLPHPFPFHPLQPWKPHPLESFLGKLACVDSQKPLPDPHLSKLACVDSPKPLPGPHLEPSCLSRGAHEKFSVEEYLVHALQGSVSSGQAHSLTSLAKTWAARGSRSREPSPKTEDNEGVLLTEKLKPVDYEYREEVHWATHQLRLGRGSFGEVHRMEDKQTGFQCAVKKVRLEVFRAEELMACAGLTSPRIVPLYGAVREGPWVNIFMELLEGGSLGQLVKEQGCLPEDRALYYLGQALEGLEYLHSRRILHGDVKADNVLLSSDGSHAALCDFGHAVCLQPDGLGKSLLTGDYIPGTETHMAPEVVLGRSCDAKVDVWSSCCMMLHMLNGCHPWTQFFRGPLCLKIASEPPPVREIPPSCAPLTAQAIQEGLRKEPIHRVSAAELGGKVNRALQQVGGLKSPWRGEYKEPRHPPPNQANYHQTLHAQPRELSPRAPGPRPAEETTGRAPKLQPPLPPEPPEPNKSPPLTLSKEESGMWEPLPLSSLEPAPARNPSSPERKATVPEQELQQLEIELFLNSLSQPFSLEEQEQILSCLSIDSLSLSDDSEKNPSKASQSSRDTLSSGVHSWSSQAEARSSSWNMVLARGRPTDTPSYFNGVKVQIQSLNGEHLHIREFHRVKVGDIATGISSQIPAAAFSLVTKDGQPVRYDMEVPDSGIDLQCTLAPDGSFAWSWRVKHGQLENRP

`COc1cc(N2CC3(CCOCC3)C2)c(Cl)cc1Nc1nccc(-c2cnc3c(c2)C(C)(CO)CN3)n1` (single isomer, unassigned) [Compound 3R]: the IC50 – broadly, the concentration needed to halve the response being measured – under setting [1] is 18.3 nM and the IC50 under setting [2] was found to be 5.7 nM.

As to `COc1cc(N2CCOCC2)c(C#N)cc1Nc1nccc(-c2cnc3c(c2)C(C)(CO)CN3)n1` (single isomer, unassigned) [Compound 4R], the IC50 turned out to be 55 nM under setting [1] and 36.3 nM under setting [2].

As for `COCCN(C)c1cc(OC)c(Nc2nccc(-c3cnc4c(c3)C(C)(CO)CN4)n2)cc1Cl` (single isomer, unassigned) [Compound 5R], the IC50 under setting [2] is 31.6 nM.

On to `COCCN(C)c1cc(OC)c(Nc2nccc(-c3cnc4c(c3)C(C)(CO)CN4)n2)cc1Cl` (single isomer, unassigned) [Compound 5S], for which the IC50 under setting [2] was 1.6 nM.

As for `COc1cc(N2CCOCC2)c(Cl)cc1Nc1nccc(-c2cnc3c(c2)C(C)(CO)CN3)n1` (single isomer, unassigned) [Compound 6R], the IC50 by setting is: under setting [1], 19.1 nM; under setting [2], 27.7 nM.

Regarding `COc1cc(N2CCOCC2)c(Cl)cc1Nc1nccc(-c2cnc3c(c2)C(C)(CO)CN3)n1` (single isomer, unassigned) [Compound 6S], the IC50 stood at 4 nM under setting [1] and 2.4 nM under setting [2].

`COc1cc(N2CC3(CCOCC3)C2)c(F)cc1Nc1nccc(-c2cnc3c(c2)C(C)(CO)CN3)n1` (single isomer, unassigned) [Compound 7R]: the half-maximal inhibitory concentration (IC50) amounted to 70.8 nM under setting [1] and 19.1 nM under setting [2].

As for `COc1cc(N2CC3(CCOCC3)C2)c(F)cc1Nc1nccc(-c2cnc3c(c2)C(C)(CO)CN3)n1` (single isomer, unassigned) [Compound 7S], the IC50 by setting is: under setting [1], 7.8 nM; under setting [2], 1.6 nM.

As for `COc1cc(C(=O)N2CCCCC2)ccc1Nc1nccc(-c2cnc3c(c2)C(C)(CO)CN3)n1` (single isomer, unassigned) [Compound 156], under setting [2], the IC50 stood at 3.2 nM.

Consider `COc1cc(C(=O)N2CCCCC2)ccc1Nc1nccc(-c2cnc3c(c2)C(C)(CO)CN3)n1` (single isomer, unassigned) [Compound 157], for which, under setting [2], the IC50 is 63.1 nM.

Take `COc1ccc(C#N)cc1Nc1nccc(-c2cnc3c(c2)C(C)(CO)CN3)n1` (single isomer, unassigned) [Compound 248]: the concentration for half-maximal inhibition (IC50) under setting [2] came to 1.3 nM.

As to `COc1ccc(C#N)cc1Nc1nccc(-c2cnc3c(c2)C(C)(CO)CN3)n1` (single isomer, unassigned) [Compound 249], the IC50 under setting [2] worked out at 17.8 nM.

For `COc1cc(N2CCOCC2)c(F)cc1Nc1nccc(-c2cnc3c(c2)C(C)(CO)CN3)n1` (single isomer, unassigned) [Compound 253], the IC50 stood at 102 nM under setting [1] and 42.7 nM under setting [2].

Turning to `COc1cc(N2CCOCC2)c(F)cc1Nc1nccc(-c2cnc3c(c2)C(C)(CO)CN3)n1` (single isomer, unassigned) [Compound 254], the IC50 reads like this: under setting [1], 6.5 nM; under setting [2], 3.6 nM.

Turning to `Cc1cc(N2CCOCC2)c(F)cc1Nc1nccc(-c2cnc3c(c2)C(C)(CO)CN3)n1` (single isomer, unassigned) [Compound 255], the IC50 under setting [1] amounted to 10.2 nM and the IC50 under setting [2] was 7.2 nM.

In the case of `Cc1cc(N2CCOCC2)c(F)cc1Nc1nccc(-c2cnc3c(c2)C(C)(CO)CN3)n1` (single isomer, unassigned) [Compound 256], the IC50 was determined as 155 nM under setting [1] and 155 nM under setting [2].

For the compound `Cc1cc(N2CCOCC2)c(Cl)cc1Nc1nccc(-c2cnc3c(c2)C(C)(CO)CN3)n1` (single isomer, unassigned) [Compound 257], the IC50 runs as follows: under setting [1], 3 nM; under setting [2], 3.4 nM.

For the compound `Cc1cc(N2CCOCC2)c(Cl)cc1Nc1nccc(-c2cnc3c(c2)C(C)(CO)CN3)n1` (single isomer, unassigned) [Compound 258], the IC50 under setting [1] worked out at 91.2 nM and the IC50 under setting [2] was 25.7 nM.

On to `CC1(CO)CNc2ncc(-c3ccnc(Nc4cc(C#N)c(N5CCOCC5)cc4Cl)n3)cc21` (single isomer, unassigned) [Compound 259], for which the half-inhibitory concentration (IC50) under setting [1] came out at 3.6 nM and the IC50 under setting [2] is 3.8 nM.

For `CC1(CO)CNc2ncc(-c3ccnc(Nc4cc(C#N)c(N5CCOCC5)cc4Cl)n3)cc21` (single isomer, unassigned) [Compound 260], the IC50 under setting [1] came out at 117 nM and the IC50 under setting [2] amounted to 70.8 nM.

In the case of `CC1(CO)CNc2ncc(-c3ccnc(Nc4cc(F)c(N5CCOCC5)cc4Cl)n3)cc21` (single isomer, unassigned) [Compound 261], the IC50 by setting is: under setting [1], 8.3 nM; under setting [2], 7.2 nM.

Consider `Cc1cc(N2CCOCC2)c(C#N)cc1Nc1nccc(-c2cnc3c(c2)C(C)(CO)CN3)n1` (single isomer, unassigned) [Compound 262], for which the IC50 under setting [1] was 129 nM and the half-inhibitory concentration (IC50) under setting [2] came to 129 nM.

For `CC1(CO)CNc2ncc(-c3ccnc(Nc4cc(F)c(N5CCOCC5)cc4Cl)n3)cc21` (single isomer, unassigned) [Compound 263], the IC50 under setting [1] worked out at 129 nM and the IC50 under setting [2] turned out to be 53.7 nM.

In the case of `Cc1cc(N2CCOCC2)c(C#N)cc1Nc1nccc(-c2cnc3c(c2)C(C)(CO)CN3)n1` (single isomer, unassigned) [Compound 264], the concentration for half-maximal inhibition (IC50) runs as follows: under setting [1], 6.6 nM; under setting [2], 6 nM.

`CC1(CO)CNc2ncc(-c3ccnc(Nc4cc(Cl)c(N5CCOCC5)cc4Cl)n3)cc21` (single isomer, unassigned) [Compound 265]: the concentration for half-maximal inhibition (IC50) is, setting by setting: under setting [1], 47.9 nM; under setting [2], 35.5 nM.

`CC1(CO)CNc2ncc(-c3ccnc(Nc4cc(Cl)c(N5CCOCC5)cc4Cl)n3)cc21` (single isomer, unassigned) [Compound 266]: the IC50 stood at 5 nM under setting [1] and 1.9 nM under setting [2].

`CN(C)CCOc1cc(N2CCOCC2)c(Cl)cc1Nc1nccc(-c2cnc3c(c2)C(C)(CO)CN3)n1` (single isomer, unassigned) [Compound 274]: the IC50 reads like this: under setting [1], 2690 nM; under setting [2], 1450 nM.

With `CN(C)CCOc1cc(N2CCOCC2)c(F)cc1Nc1nccc(-c2cnc3c(c2)C(C)(CO)CN3)n1` (single isomer, unassigned) [Compound 286], the IC50 is, setting by setting: under setting [1], 7240 nM; under setting [2], 3390 nM.

On to `COc1cc(N2CC(OC)C2)c(F)cc1Nc1nccc(-c2cnc3c(c2)C(C)(CO)CN3)n1` (single isomer, unassigned) [Compound 288], for which the half-inhibitory concentration (IC50) is, setting by setting: under setting [1], 112 nM; under setting [2], 57.5 nM.

As to `COc1cc(N2CCN(C)CC2)c(Cl)cc1Nc1nccc(-c2cnc3c(c2)C(C)(CO)CN3)n1` (single isomer, unassigned) [Compound 291], the IC50 runs as follows: under setting [1], 1.4 nM; under setting [2], 0.5 nM.

Take `CCN1CCN(c2cc(OC)c(Nc3nccc(-c4cnc5c(c4)C(C)(CO)CN5)n3)cc2Cl)CC1` (single isomer, unassigned) [Compound 293]: the IC50 by setting is: under setting [1], 1.5 nM; under setting [2], 0.5 nM.

Consider `CCN1CCN(c2cc(OC)c(Nc3nccc(-c4cnc5c(c4)C(C)(CO)CN5)n3)cc2Cl)CC1` (single isomer, unassigned) [Compound 295], for which the IC50 under setting [1] came out at 12.3 nM and the IC50 under setting [2] stood at 5.1 nM.

On to `CN(C)CCOc1cc(N2CCOCC2)c(F)cc1Nc1nccc(-c2cnc3c(c2)C(C)(CO)CN3)n1` (single isomer, unassigned) [Compound 297], for which the IC50 was 708 nM under setting [1] and 309 nM under setting [2].

With `COc1cc(N2CC(OC)C2)c(F)cc1Nc1nccc(-c2cnc3c(c2)C(C)(CO)CN3)n1` (single isomer, unassigned) [Compound 298], the IC50 under setting [1] was found to be 8.1 nM and the IC50 under setting [2] worked out at 2.3 nM.

For `COc1cc(N2CCN(C)CC2)c(Cl)cc1Nc1nccc(-c2cnc3c(c2)C(C)(CO)CN3)n1` (single isomer, unassigned) [Compound 303], the IC50 runs as follows: under setting [1], 13.8 nM; under setting [2], 4.8 nM.

Regarding `COc1cc(N2CC3(CCOCC3)C2)c(Cl)cc1Nc1ncc(Cl)c(-c2cnc3c(c2)C(C)(CO)CN3)n1` (single isomer, unassigned) [Compound 348], the IC50 under setting [3] was found to be 14.8 nM.

Consider `COc1cc(C(=O)NC2CCOCC2)ccc1Nc1ncc(Cl)c(-c2cnc3c(c2)C(C)(CO)CN3)n1` (single isomer, unassigned) [Compound 351], for which the IC50 under setting [3] came out at 24 nM.

For `COc1cc(C(=O)NC2CCOCC2)ccc1Nc1ncc(F)c(-c2cnc3c(c2)C(C)(CO)CN3)n1` (single isomer, unassigned) [Compound 352], under setting [3], the IC50 came to 33.9 nM.

On to `COc1cc(N2CC3(CCOCC3)C2)c(Cl)cc1Nc1nccc(-c2cnc3c(c2)C(C)(CO)CN3)n1` (stereo not shown) [Compound 3], for which the IC50 reads like this: under setting [1], 10 nM; under setting [2], 2.2 nM.

As to `COCCN(C)c1cc(OC)c(Nc2nccc(-c3cnc4c(c3)C(C)(CO)CN4)n2)cc1Cl` (stereo not shown) [Compound 5], the concentration for half-maximal inhibition (IC50) turned out to be 6.3 nM under setting [1] and 4.1 nM under setting [2].

On to `COc1cc(N2CCOCC2)c(Cl)cc1Nc1nccc(-c2cnc3c(c2)C(C)(CO)CN3)n1` (stereo not shown) [Compound 6], for which the IC50 under setting [1] was found to be 4.7 nM and the IC50 under setting [2] worked out at 4 nM.
